Source: US8129417B2, “Substituted octahydrocyclopenta[C]pyrrol-4-amines as calcium channel blockers” (Abbott Laboratories, priority 2008, dated 2012)

These compounds were tested against human Cav2.2 (Homo sapiens, UniProt Q00975) (assay: Assessment of calcium channel activity using FLIPR (Ca2+ influx in IMR32 cells)). Settings: 60 minute pre-incubation with compound, 2 μM nifedipine, depolarized with 80 mM KCl.
Type: cell-based
How it was run: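 IMR32 neuroblastoma cells seeded at 1-1.2×10^5 cells/well and grown 48 h at 37 °C before FLIPR Ca2+ influx read. Percent inhibition at each concentration vs no-inhibitor activity; IC50 by non-linear sigmoidal dose-response fit.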

Chain of human Cav2.2 (Q00975 whole entry): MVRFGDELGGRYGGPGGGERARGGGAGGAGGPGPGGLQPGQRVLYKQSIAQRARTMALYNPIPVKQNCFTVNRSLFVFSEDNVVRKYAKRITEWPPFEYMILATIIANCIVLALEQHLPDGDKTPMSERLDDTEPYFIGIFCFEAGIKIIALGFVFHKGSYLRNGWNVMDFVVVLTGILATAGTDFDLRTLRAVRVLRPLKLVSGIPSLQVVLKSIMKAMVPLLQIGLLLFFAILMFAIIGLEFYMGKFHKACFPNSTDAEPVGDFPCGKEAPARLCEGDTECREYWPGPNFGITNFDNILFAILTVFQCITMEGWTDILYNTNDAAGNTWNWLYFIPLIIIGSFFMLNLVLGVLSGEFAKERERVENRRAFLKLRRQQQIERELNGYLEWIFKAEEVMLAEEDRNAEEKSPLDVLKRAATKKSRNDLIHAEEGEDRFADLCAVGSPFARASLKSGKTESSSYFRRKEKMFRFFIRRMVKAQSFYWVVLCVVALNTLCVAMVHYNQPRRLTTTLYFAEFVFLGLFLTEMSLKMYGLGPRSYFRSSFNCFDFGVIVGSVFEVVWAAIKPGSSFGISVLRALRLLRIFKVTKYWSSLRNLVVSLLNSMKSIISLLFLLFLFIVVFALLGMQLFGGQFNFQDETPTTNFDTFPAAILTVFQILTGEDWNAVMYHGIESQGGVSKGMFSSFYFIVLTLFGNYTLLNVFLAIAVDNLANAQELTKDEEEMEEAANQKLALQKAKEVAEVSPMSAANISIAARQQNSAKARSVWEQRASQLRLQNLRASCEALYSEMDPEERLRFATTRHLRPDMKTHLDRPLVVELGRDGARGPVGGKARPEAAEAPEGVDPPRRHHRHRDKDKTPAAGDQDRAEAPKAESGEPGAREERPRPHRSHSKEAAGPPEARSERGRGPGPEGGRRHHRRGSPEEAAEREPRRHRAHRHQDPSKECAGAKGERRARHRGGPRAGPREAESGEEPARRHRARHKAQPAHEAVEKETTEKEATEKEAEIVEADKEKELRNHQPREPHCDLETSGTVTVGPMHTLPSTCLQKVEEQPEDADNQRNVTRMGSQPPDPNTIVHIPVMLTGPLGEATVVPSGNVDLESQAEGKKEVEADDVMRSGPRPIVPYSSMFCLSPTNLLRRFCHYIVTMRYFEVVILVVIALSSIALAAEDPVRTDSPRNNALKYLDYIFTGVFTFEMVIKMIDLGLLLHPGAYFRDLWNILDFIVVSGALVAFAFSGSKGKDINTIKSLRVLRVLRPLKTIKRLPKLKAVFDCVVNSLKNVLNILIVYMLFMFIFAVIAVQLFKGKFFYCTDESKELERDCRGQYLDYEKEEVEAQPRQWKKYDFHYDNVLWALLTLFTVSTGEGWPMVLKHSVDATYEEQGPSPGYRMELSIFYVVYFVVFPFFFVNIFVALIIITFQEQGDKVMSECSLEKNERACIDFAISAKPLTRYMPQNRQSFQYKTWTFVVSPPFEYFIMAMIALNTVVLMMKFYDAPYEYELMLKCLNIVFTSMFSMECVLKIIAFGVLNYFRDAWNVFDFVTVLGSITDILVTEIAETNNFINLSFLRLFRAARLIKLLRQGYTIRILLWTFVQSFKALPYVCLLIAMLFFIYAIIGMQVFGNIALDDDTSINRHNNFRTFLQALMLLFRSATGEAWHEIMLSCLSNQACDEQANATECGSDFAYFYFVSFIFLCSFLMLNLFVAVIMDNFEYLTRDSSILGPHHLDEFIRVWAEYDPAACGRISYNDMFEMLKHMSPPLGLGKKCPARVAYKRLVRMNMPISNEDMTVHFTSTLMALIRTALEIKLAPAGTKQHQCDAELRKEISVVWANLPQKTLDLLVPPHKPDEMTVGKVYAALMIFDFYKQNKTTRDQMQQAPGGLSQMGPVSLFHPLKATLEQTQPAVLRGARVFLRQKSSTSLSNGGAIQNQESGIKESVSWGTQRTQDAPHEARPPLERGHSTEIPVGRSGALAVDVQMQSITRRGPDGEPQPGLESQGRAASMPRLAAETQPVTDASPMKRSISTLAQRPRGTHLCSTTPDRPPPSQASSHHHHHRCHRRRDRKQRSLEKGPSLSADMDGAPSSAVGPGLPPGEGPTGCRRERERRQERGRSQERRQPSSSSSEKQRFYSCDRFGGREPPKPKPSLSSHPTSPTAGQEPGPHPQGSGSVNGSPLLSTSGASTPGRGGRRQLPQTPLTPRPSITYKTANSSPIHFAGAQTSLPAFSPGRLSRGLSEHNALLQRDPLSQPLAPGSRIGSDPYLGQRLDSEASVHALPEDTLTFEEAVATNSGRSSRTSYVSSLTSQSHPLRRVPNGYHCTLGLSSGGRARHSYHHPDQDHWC
Chain of human Cav2.2 (P54289 25-946 partner limits assumed): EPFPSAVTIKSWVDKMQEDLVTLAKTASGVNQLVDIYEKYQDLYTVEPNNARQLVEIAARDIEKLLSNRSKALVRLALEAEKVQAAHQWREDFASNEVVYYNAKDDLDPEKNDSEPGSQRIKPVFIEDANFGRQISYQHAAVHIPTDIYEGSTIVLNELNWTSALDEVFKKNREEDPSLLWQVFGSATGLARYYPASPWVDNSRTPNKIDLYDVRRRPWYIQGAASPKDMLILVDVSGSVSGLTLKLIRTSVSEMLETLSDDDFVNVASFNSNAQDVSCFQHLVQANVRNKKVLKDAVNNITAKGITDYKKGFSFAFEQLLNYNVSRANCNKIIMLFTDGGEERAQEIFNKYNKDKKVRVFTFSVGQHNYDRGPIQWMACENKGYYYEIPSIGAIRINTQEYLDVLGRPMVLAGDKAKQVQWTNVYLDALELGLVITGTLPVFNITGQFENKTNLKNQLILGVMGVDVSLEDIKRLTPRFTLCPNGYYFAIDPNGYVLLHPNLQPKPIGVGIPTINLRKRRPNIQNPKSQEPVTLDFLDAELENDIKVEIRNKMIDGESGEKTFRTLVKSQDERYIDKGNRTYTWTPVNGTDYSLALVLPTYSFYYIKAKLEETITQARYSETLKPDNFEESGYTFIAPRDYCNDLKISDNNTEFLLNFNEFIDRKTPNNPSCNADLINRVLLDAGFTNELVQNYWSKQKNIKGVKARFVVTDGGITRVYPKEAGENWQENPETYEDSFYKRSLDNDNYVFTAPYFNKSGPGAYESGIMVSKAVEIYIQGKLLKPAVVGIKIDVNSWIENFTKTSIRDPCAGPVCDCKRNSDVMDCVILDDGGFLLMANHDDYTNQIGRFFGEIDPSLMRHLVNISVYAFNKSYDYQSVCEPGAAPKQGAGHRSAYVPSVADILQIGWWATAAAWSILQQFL
Chain of human Cav2.2 (P54289 947-1103 partner limits assumed): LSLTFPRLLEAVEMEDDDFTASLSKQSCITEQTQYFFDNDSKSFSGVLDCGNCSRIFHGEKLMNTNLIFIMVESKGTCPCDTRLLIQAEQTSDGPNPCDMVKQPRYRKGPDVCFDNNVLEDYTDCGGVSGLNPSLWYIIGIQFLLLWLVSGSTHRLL
Chain of human Cav2.2 (P54284 whole entry partner): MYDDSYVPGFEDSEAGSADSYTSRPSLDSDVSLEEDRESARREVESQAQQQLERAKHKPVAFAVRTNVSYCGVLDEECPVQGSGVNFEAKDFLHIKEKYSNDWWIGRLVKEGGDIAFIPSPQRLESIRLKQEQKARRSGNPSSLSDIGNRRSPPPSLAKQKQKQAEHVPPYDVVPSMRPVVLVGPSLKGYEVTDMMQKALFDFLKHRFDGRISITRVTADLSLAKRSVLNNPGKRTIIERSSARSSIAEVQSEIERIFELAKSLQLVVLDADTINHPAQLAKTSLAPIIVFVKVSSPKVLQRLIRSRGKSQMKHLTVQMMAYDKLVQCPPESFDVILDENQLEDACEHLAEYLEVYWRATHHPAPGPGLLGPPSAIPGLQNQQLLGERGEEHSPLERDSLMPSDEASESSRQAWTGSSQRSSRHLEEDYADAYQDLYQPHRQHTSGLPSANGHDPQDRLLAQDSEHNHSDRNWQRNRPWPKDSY

Row | Compound | IC50 [µM]
1 | CCC[C@H](NCC(C)(C)C)C(=O)N[C@@H]1CC[C@H]2CN(S(=O)(=O)c3cccc(C(F)(F)F)c3)C[C@H]21 [Example 255, N^2-neopentyl-N^1-((3aS,4R,6aR)-2-{[3-(trifluoromethyl)phenyl]sulfonyl}octahydrocyclopenta[c]pyrrol-4-yl)-L-norvalinamide] | 0.55
2 | CC(C)C[C@H](NCC(C)(C)C)C(=O)N[C@H]1CC[C@@H]2CN(S(=O)(=O)c3ccc(C(F)(F)F)cc3)C[C@@H]21 [Example 256, N^2-neopentyl-N^1-((3aR,4S,6aS)-2-{[4-(trifluoromethyl)phenyl]sulfonyl}octahydrocyclopenta[c]pyrrol-4-yl)-L-leucinamide] | 1.38
3 | CN(C(=O)OC(C)(C)C)C(Cc1ccccc1)C(=O)NC1CCC2CN(S(=O)(=O)c3ccc(C(F)(F)F)cc3)CC21 [Example 258, N-(tert-butoxycarbonyl)-N-methyl-N-((3aR,4S,6aS)-2-{[4-(trifluoromethyl)phenyl]sulfonyl}octahydrocyclopenta[c]pyrrol-4-yl)-1-phenylalaninamide] | 0.85
4 | CCC[C@@H](C(=O)N[C@H]1CC[C@@H]2CN(S(=O)(=O)c3ccc(C(F)(F)F)cc3)C[C@@H]21)N(C)C(=O)OC(C)(C)C [Example 259, tert-butyl methyl((S)-1-oxo-1-((3aR,4S,6aS)-2-(4-(trifluoromethyl)phenylsulfonyl)octahydrocyclopenta[c]pyrrol-4-ylamino)pentan-2-yl)carbamate] | 1.14
5 | CC(C)(C)C[C@H](NC(=O)OC(C)(C)C)C(=O)N[C@H]1CC[C@@H]2CN(c3ccc(C(F)(F)F)cn3)C[C@@H]21 [Example 262, tert-butyl(S)-4,4-dimethyl-1-oxo-1-((3aR,4S,6aS)-2-(5-(trifluoromethyl)pyridin-2-yl)octahydrocyclopenta[c]pyrrol-4-ylamino)pentan-2-ylcarbamate] | 1.8
6 | CC(C)(C)C[C@H](NC(=O)OC(C)(C)C)C(=O)N[C@H]1CC[C@@H]2CN(c3cnc(S(C)(=O)=O)nc3)C[C@@H]21 [Example 265, tert-butyl(S)-4,4-dimethyl-1-((3aR,4S,6aS)-2-(2-(methylsulfonyl)pyrimidin-5-yl)octahydrocyclopenta[c]pyrrol-4-ylamino)-1-oxopentan-2-ylcarbamate] | 2.62
7 | CC(C)(C)OC(=O)N1CCCC[C@H]1C(=O)N[C@@H]1CC[C@H]2CN(S(=O)(=O)c3cccc(C(F)(F)F)c3)C[C@H]21 [Example 268, tert-butyl(2S)-2-{[((3aS,4R,6aR)-2-{[3-(trifluoromethyl)phenyl]sulfonyl}octahydrocyclopenta[c]pyrrol-4-yl)amino]carbonyl}piperidine-1-carboxylate] | 0.73
8 | CN(C(=O)OC(C)(C)C)C(Cc1ccccc1)C(=O)NC1CCC2CN(S(=O)(=O)c3cccc(C(F)(F)F)c3)CC21 [Example 270, N-(tert-butoxycarbonyl)-N-methyl-N-((3aR,4S,6aS)-2-{[3-(trifluoromethyl)phenyl]sulfonyl}octahydrocyclopenta[c]pyrrol-4-yl)-L-phenylalaninamide] | 0.77
9 | CC(C)[C@@H](CC(=O)N[C@H]1CC[C@@H]2CN(S(=O)(=O)c3cccc(C(F)(F)F)c3)C[C@@H]21)NC(=O)OC(C)(C)C [Example 272, tert-butyl(1R)-1-isopropyl-3-oxo-[((3aR,4S,6aS)-2-{[3-(trifluoromethyl)phenyl]sulfonyl}octahydrocyclopenta[c]pyrrol-4-yl)amino]propylcarbamate] | 5.14
10 | CC(C)[C@@H](C(=O)N[C@H]1CC[C@@H]2CN(S(=O)(=O)c3cccc(C(F)(F)F)c3)C[C@@H]21)N(C)C(=O)OC(C)(C)C [Example 273, tert-butyl methyl((S)-3-methyl-1-oxo-1-((3aR,4S,6aS)-2-(3-(trifluoromethyl)phenylsulfonyl)octahydrocyclopenta[c]pyrrol-4-ylamino)butan-2-yl)carbamate] | 0.18
11 | CC(C)(C)OC(=O)N1CCCC[C@H]1C(=O)N[C@H]1CC[C@@H]2CN(S(=O)(=O)c3cccc(C(F)(F)F)c3)C[C@@H]21 [Example 274, tert-butyl(2S)-2-{[((3aR,4S,6aS)-2-{[3-(trifluoromethyl)phenyl]sulfonyl}octahydrocyclopenta[c]pyrrol-4-yl)amino]carbonyl}piperidine-1-carboxylate] | 1.38
12 | CC(C)(C)C[C@H](NC(=O)OC(C)(C)C)C(=O)N[C@H]1CC[C@@H]2CN(S(=O)(=O)c3cccc(C(F)(F)F)c3)C[C@@H]21 [Example 276, tert-butyl(S)-4,4-dimethyl-1-oxo-1-((3aR,4S,6aS)-2-(3-(trifluoromethyl)phenylsulfonyl)octahydrocyclopenta[c]pyrrol-4-ylamino)pentan-2-ylcarbamate] | 0.38
13 | CC(C)N[C@H]1CC[C@@H]2CN(S(=O)(=O)c3ccc(C(F)(F)F)cc3)C[C@@H]21 [Example 283, (3aR,4S,6aS)—N-isopropyl-2-{[4-(trifluoromethyl)phenyl]sulfonyl}octahydrocyclopenta[c]pyrrol-4-amine] | 8.69
14 | O=S(=O)(c1cccc(C(F)(F)F)c1)N1C[C@@H]2CC[C@@H](NCc3ccc(F)cc3)[C@@H]2C1 [Example 285, (3aS,4R,6aR)—N-(4-fluorobenzyl)-2-{[3-(trifluoromethyl)phenyl]sulfonyl}octahydrocyclopenta[c]pyrrol-4-amine] | 0.48
15 | CCCN[C@H]1CC[C@@H]2CN(S(=O)(=O)c3ccc(C(F)(F)F)cc3)C[C@@H]21 [Example 290, (3aR,4S,6aS)—N-propyl-2-{[4-(trifluoromethyl)phenyl]sulfonyl}octahydrocyclopenta[c]pyrrol-4-amine] | 7.8

Continued by falling IC50, values first:

Row | IC50 [µM] | Compound
16 | 10.4 | CCN[C@H]1CC[C@@H]2CN(S(=O)(=O)c3ccc(C(F)(F)F)cc3)C[C@@H]21 [Example 288, (3aR,4S,6aS)—N-ethyl-2-{[4-(trifluoromethyl)phenyl]sulfonyl}octahydrocyclopenta[c]pyrrol-4-amine]
17 | 5.24 | CC(C)(C)CN[C@H]1CC[C@@H]2CN(S(=O)(=O)c3cccc(C(F)(F)F)c3)C[C@@H]21 [Example 282, (3aR,4S,6aS)—N-neopentyl-2-{[3-(trifluoromethyl)phenyl]sulfonyl}octahydrocyclopenta[c]pyrrol-4-amine]
18 | 4.4 | CCCN(CCC)[C@H]1CC[C@@H]2CN(S(=O)(=O)c3ccc(C(F)(F)F)cc3)C[C@@H]21 [Example 291, (3aR,4S,6aS)—N,N-dipropyl-2-{[4-(trifluoromethyl)phenyl]sulfonyl}octahydrocyclopenta[c]pyrrol-4-amine]
19 | 4.18 | CC(C)(C)CN[C@@H]1CC[C@H]2CN(S(=O)(=O)c3cccc(C(F)(F)F)c3)C[C@H]21 [Example 281, (3aS,4R,6aR)—N-neopentyl-2-{[3-(trifluoromethyl)phenyl]sulfonyl}octahydrocyclopenta[c]pyrrol-4-amine]
20 | 3.41 | CC(C)(C)OC(=O)N1CCC[C@H]1C(=O)N[C@H]1CC[C@@H]2CN(S(=O)(=O)c3cccc(C(F)(F)F)c3)C[C@@H]21 [Example 271, (S)-tert-butyl 2-((3aR,4S,6aS)-2-(3-(trifluoromethyl)phenylsulfonyl)octahydrocyclopenta[c]pyrrol-4-ylcarbamoyl)pyrrolidine-1-carboxylate]
21 | 3.09 | Fc1ccc(CN[C@H]2CC[C@@H]3CN(Cc4cccc(C(F)(F)F)c4)C[C@@H]32)cc1 [Example 287, (3aR,4S,6aS)—N-(4-fluorobenzyl)-2-[3-(trifluoromethyl)benzyl]octahydrocyclopenta[c]pyrrol-4-amine]
22 | 0.92 | CC(C)(C)OC(=O)N1Cc2ccccc2C[C@H]1C(=O)N[C@H]1CC[C@@H]2CN(S(=O)(=O)c3cccc(C(F)(F)F)c3)C[C@@H]21 [Example 275, tert-butyl(3S)-3-{[((3aR,4S,6aS)-2-{[3-(trifluoromethyl)phenyl]sulfonyl}octahydrocyclopenta[c]pyrrol-4-yl)amino]carbonyl}-3,4-dihydroisoquinoline-2(1H)-carboxylate]
23 | 0.87 | CC(C)(C)OC(=O)N1CCC[C@H]1C(=O)N[C@@H]1CC[C@H]2CN(S(=O)(=O)c3cccc(C(F)(F)F)c3)C[C@H]21 [Example 266, (S)-tert-butyl 2-((3aS,4R,6aR)-2-(3-(trifluoromethyl)phenylsulfonyl)octahydrocyclopenta[c]pyrrol-4-ylcarbamoyl)pyrrolidine-1-carboxylate]
24 | 0.72 | CC(C)C[C@H](NCC(C)(C)C)C(=O)N[C@@H]1CC[C@H]2CN(S(=O)(=O)c3cccc(C(F)(F)F)c3)C[C@H]21 [Example 254, N^2-neopentyl-N^1-((3aS,4R,6aR)-2-{[3-(trifluoromethyl)phenyl]sulfonyl}octahydrocyclopenta[c]pyrrol-4-yl)-L-leucinamide]
25 | 0.72 | CCCC[C@@H](C(=O)N[C@H]1CC[C@@H]2CN(S(=O)(=O)c3cccc(C(F)(F)F)c3)C[C@@H]21)N(C)C(=O)OC(C)(C)C [Example 277, tert-butyl methyl((S)-1-oxo-1-((3aR,4S,6aS)-2-(3-(trifluoromethyl)phenylsulfonyl)octahydrocyclopenta[c]pyrrol-4-ylamino)hexan-2-yl)carbamate]
26 | 0.38 | O=S(=O)(c1cccc(C(F)(F)F)c1)N1C[C@H]2CC[C@H](NCc3ccc(F)cc3)[C@H]2C1 [Example 286, (3aR,4S,6aS)—N-(4-fluorobenzyl)-2-{[3-(trifluoromethyl)phenyl]sulfonyl}octahydrocyclopenta[c]pyrrol-4-amine]
27 | 0.34 | CCC[C@@H](C(=O)N[C@H]1CC[C@@H]2CN(S(=O)(=O)c3cccc(C(F)(F)F)c3)C[C@@H]21)N(C)C(=O)OC(C)(C)C [Example 278, tert-butyl methyl((S)-1-oxo-1-((3aR,4S,6aS)-2-(3-(trifluoromethyl)phenylsulfonyl)octahydrocyclopenta[c]pyrrol-4-ylamino)pentan-2-yl)carbamate]
28 | 0.28 | CC(C)(C)C[C@H](NC(=O)OC(C)(C)C)C(=O)N[C@H]1CC[C@@H]2CN(c3cccc(C(F)(F)F)n3)C[C@@H]21 [Example 264, tert-butyl(S)-4,4-dimethyl-1-oxo-1-((3aR,4S,6aS)-2-(6-(trifluoromethyl)pyridin-2-yl)octahydrocyclopenta[c]pyrrol-4-ylamino)pentan-2-ylcarbamate]
